In assay [1] the test system is intracellular amastigotes of Leishmania mexicana M379. The assay is described as follows: intracellular amastigote assay in infected murine macrophages. The class given is cell-based. As for the experimental part: Bone-marrow-derived macrophages (BALB/c) were cultured with L-cell-conditioned medium for 5-7 days at 35° C. After this period of incubation, mature macrophages were transferred to Labtek 4-chamber slides containing DMEM (Dulbecco's Modified Eagle's Medium) and 10% fetal calf serum. 50,000 cells were seeded in each chamber and allowed to attach overnight at 37° C. in a humidified incubator flushed with 5% CO2. On the next day the macrophages were infected at an MOI (Multiplicity of Infection) of 10:1 with stationary promastigotes of L. mexicana. After twenty-four hours, the medium was removed and fresh medium was added containing various drug concentrations (0-5 μM). Following incubation for an additional forty-eight hours, one set of slides were fixed in methanol, dried, and stained with Giemsa stain. Fresh medium and drug were added to a parallel set of chamber slides and incubated for another 48 hours before staining. […] Microscopic inspection permitted determination of % of infected macrophages and the number of amastigotes per 100 macrophages. The IC50 value is that concentration of drug that reduces the amastigote number by 50% relative to drug-free controls. Results also were obtained in parallel fashion with macrophages.
Intracellular amastigote studies. […] Because the amastigote stage is the only relevant clinical form of the parasites, we examined the activity of the nitrogenated xanthones against the heme-auxotrophic, intracellular amastigote form of L. mexicana. Stationary promastigotes of L. mexicana M379 rapidly invaded murine peritoneal macrophages obtained from BALB/c mice and incubated at 35° C. producing heavily burdened cells with 10 to 50 amastigotes per macrophage within 24 hours. An experiment was performed to investigate the ability of selected xanthones to reduce the number of intracellular amastigotes using this model. The IC50 value is that concentration of drug required to reduce the intracellular parasite burden by 50% relative to a drug-free control chamber. We tested the xanthone series against amastigote-infected murine peritoneal macrophages. Macrophages were seeded into Labtek chamber slides (25,000 per well/8 chamber slide) and allowed to incubate overnight in Dulbecco's Modified Eagle Medium (DMEM) supplemental with 10% fetal calf serum. On the next day the cells were infected with L. mexicana promastigotes at an MOI of 5:1 and then incubated for 24 hours at 35° C. After incubation, the monolayers were washed with buffer and medium containing varying concentrations of each xanthone (0 to 10 μM) was added to each chamber. After 48 hours of incubation (i.e., Day 3 of the experiment) one set of slides was removed, fixed with methanol, and stained with Giemsa. For another set of slides, we replenished the culture medium, added fresh drug to each well as appropriate, and then incubated the chambers for another 48 hours before staining with Giemsa. IC50 values were then averaged for 3 separate experiments and the results are presented in Table 4 and graphically in FIG. 7. […] The IC50 values recorded for C5 and C6 exposure for 96 hours of treatment were 6 nM and 2 nM.

In another assay the test system is P. falciparum W2 strain. The assay is described as follows: antimalarial activity against multidrug resistant W2 strain. It counts as cell-based, Plasmodium falciparum. As for the experimental part: A decision was made to retain the oxygen atom (a conjugatively electron-donating species) as a bridge for an R-group containing the protonatable nitrogen. […] For comparative purposes, the straight-chain di-substituted series from C2 to C8 (i.e., excepting C7), each with a terminal diethylamino group was prepared. Shown in Table 4 is the remarkable relationship between chain length and antimalarial activity within the series . . . and the extraordinary potency of the C5 (3,6-bis-ω-diethylaminoamyloxyxanthone) and C6 (3,6-bis-ω-diethylaminohexyloxyxanthone) congeners.

Assay [2] deals with Plasmodium falciparum D6 strain. The assay is described as follows: in vitro anti-malarial activity, [3H]-ethanolamine incorporation method. The class given is cell-based. How it is done: Cultures were maintained at 37° C. in a gas mixture of 5% oxygen, 5% CO2, and 90% nitrogen.
[^3H]-ethanolamine was obtained from American Radiolabeled Chemicals, Inc., St. Louis, Mo. Experiments were conducted in 96 well plates in a total volume of 200 μl at a final red blood cell concentration of 2% (v/v). An initial parasitemia of 0.2 to 0.5% was attained by addition of normal uninfected red cells. Radiolabeled ethanolamine was added after 48 hours of incubation and the experiment was terminated after 72 hours by collecting the cells onto glass fiber filters with an automated multiwell harvester.
Stock solutions of the various Formula X1 compounds were dissolved in DMSO at a concentration of 1 mM and diluted in complete medium (including 10% human serum) to provide 10X stock concentrations in the range of 1 to 10,000 nM.

Assay [3] is described as follows: in vitro heme aggregation (polymerization) assay. The class given is biochemical. Conditions: for inhibitory activity in heme polymerization assay: result in words. How it is done:
Heme polymerization was carried out in 0.02 M phosphate buffer, pH 5.2 at 37° C. in the absence of protenis. A 10 mM stock solution of hemin chloride in 0.1 M NaOH wa prepared freshly and incuated at 37° C. for at least 1 hour to effect complete dissolution. Xanthones were dissolved in dimethylformamide at 10 mM and diluted into 10 ml of pre-warmed phosphate solution to a final concentraion of 25 μm. […] 25 μl of dimethylformaide wa added to the control smample. After 7, 30, 60, 120 and 190 minutes of incugation at 37° C., a 1 ml aliquot was withdraqwn, tranferred into an Eppendorf tube, and centrifugted at 14,000 g for 2 minutes at room temperature to pellet the precipitate. The soluble fraction was then transferred to a semi-microcuvette (polymethyacrylate, VER), and its absoprtion was measured at 360 nm against a blank of the test compound in buffer.
The reactions were allowed to proceed for 2 hours in a 37° C. waterbath. After incubation, the polymer was pelleted as described above and the absorption (360 nm) of each soluble fraction was measured against a blank containing the drug alone in buffer. The IC50 values were determined by nonlinear regression analysis of the dose-response curves of percent inhibition of heme polymerization vs. drug concentration.

In the next assay the test system is Candida albicans. The assay is described as follows: anti-Candida activity, MIC by visual inspection. It counts as cell-based. Conditions: conversion of the MIC, read-out: IC50 corresponding to the MIC against Candida albicans. How it is done: The minimum inhibitory concentration (MIC) of formula X1 compounds against a clinical isolate of Candida albicans was determined using the following method. […] The determination of this concentration is made by visual inspection; there is no visible growth in a tube containing the MIC of the formula X1 compound whereas visible growth is present in tubes containing sub-MIC concentrations of the compound.
Candida albicans was grown to midlog-phase in Luria-Bertani broth (10 grams Bacto-tryptone, 5 grams Bacto-yeast extract and 10 grams NaCl per liter) and then inoculated into sterile test tubes containing LB broth to an initial density of 10^3/ml. The formula X1 compound to be tested is dissolved in dimethylsulfoxide (DMSO) at a concentration of 1 mM and added to each tube at serial dilutions (1 μM, 10 μM, 25 μM, 50 μM, 100 μM and 0 μM). The tubes are incubated at 35° C. for 15-18 hours and then visually inspected.

[4] abbreviates: 96 hours of treatment, peritoneal macrophages, read-out: IC50, L. mexicana amastigotes.
The mark [5] stands for this setting: Table 4, 48 hours of drug exposure, reduction of amastigote burden by 50%, read-out: IC50 μM** L. mexicana.
Setting [6] is: P. falciparum D6, read-out: IC50, anti-malarial activity.
The mark [7] stands for this setting: Table 4, average of 2 experiments in triplicate, 72 hour assay, read-out: IC50 μM* P. falciparum D6.
Setting [8] is: Table 3, 25 μM heme, pH 5.2, 37° C., 2 hours, average of at least two determinations, read-out: IC50, μM in vitro heme polymerization.
Setting [9] is: Plasmodium falciparum, D6, Table 3, read-out: IC50 μM, P. falciparum clone D6.
The mark [10] stands for this setting: Plasmodium falciparum, D6, Table 4, average of 2 experiments in triplicate, 72 hour assay, read-out: IC50 μM* P. falciparum D6.
[11] abbreviates: Leishmania mexicana, Macrophage, 48 h, read-out: IC50 μM** L. mexicana.
Setting [12] is: Plasmodium falciparum, D6, read-out: IC50 μM, P. falciparum clone D6.

Converted amounts (≈) assume the structure as drawn. Like-named read-outs stand apart in the source and are kept apart here.

As to `CCN(CC)CCCCCCOc1ccc2c(=O)c3ccc(OCCCCCCN(CC)CC)cc3oc2c1` [36-DEAHexyl-X, 3,6-bis-(N,N-diethylamino)-hexyloxy-xanthone], the IC50 in assay [1] (setting [4]) was 0.002 µM; in assay [1] (setting [5]), 0.02 µM; in assay [2] (setting [6]), approximately 0.1 µM; in assay [2] (setting [7]), 0.075 µM. Moreover, the “degree of potency against W2 compared with D6” value with P. falciparum W2 strain is given as “the same”.
Turning to `COc1cc2c(=O)c3ccc(OC)c(OC)c3oc2c(OC)c1OC` [2,3,4,5,6-pentamethoxyxanthone], the IC50 in assay [3] (setting [8]) is more than 1000 µM; in assay [2] (setting [9]), more than 100 µM. The “inhibitory activity in heme polymerization assay” value (from here on “inhibitory activity”) in assay [3] was “inactive”.
Take `CCN(CC)c1ccc2c(=O)c3ccc(N(CC)CC)cc3oc2c1` [36-DEAX, 3,6-bis-N,N-diethylamino-xanthone]: the IC50 is 20 µM in assay [2] (setting [10]) and approximately 20 µM in assay [2] (Plasmodium falciparum, P. falciparum D6, read-out: IC50, anti-malarial activity).
Regarding `CCN(CC)CCCC(C)Nc1ccnc2cc(Cl)ccc12` (stereo not drawn) [Chloroquine, reference compound], the IC50 in assay [2] (Plasmodium falciparum, D6, read-out: IC50, anti-malarial activity) is approximately 0.04 µM.
For `O=c1c2cc(O)c(O)c(O)c2oc2cc(O)cc(O)c12` [1,3,5,6,7-pentahydroxyxanthone], the IC50 came out at 9 µM in assay [3] (setting [8]) and 1 µM in assay [2] (setting [9]).
The like results for `O=c1c2cccc(O)c2oc2c(O)cccc12` [4,5-dihydroxyxanthone] were, in that order, 14 µM and 16 µM.
Regarding `O=c1c2ccccc2oc2c(O)c(O)c(O)cc12` [2,3,4-trihydroxyxanthone], the concentration for half-maximal inhibition (IC50) in assay [3] (setting [8]) came to 17 µM; in assay [3] (text b143, read-out: IC50, inhibition of heme polymerization) it was 16.5 µM; in assay [2] (setting [9]), 40 µM.
On to `CCN(CC)CCCCCCCCOc1ccc2c(=O)c3ccc(OCCCCCCCCN(CC)CC)cc3oc2c1` [36-DEAOctyloxy-X, 3,6-bis-(N,N-diethylamino)octyloxy-xanthone], for which the IC50 in assay [2] (setting [7]) stood at 0.43 µM.
As for `CCN(CC)CCCCCOc1cccc2c(=O)c3cccc(OCCCCCN(CC)CC)c3oc12`, the IC50 in assay [2] (Plasmodium falciparum, D6, Table 4, cells printed in nM, 72 hour assay, read-out: IC50 μM* P. falciparum D6) is 0.575 µM.
Regarding `O=c1c2cc(O)c(O)c(O)c2oc2c(O)c(O)c(O)cc12` [2,3,4,5,6,7-hexahydroxyxanthone], the IC50 in assay [3] (setting [8]) is 1.4 µM; with Candida albicans, approximately 10 µg/mL (≈ 34.2 µM); in assay [2] (setting [9]), 0.1 µM.
Regarding `CC(=O)Oc1cc2c(=O)c3ccc(OC(C)=O)c(OC(C)=O)c3oc2c(OC(C)=O)c1OC(C)=O` [2,3,4,5,6-pentaacetoxyxanthone], the 50% inhibitory concentration (IC50) in assay [3] (setting [8]) was more than 1000 µM; in assay [2] (setting [9]), 0.075 µM. Besides, in assay [3], the “inhibitory activity” value was “inactive”.
Take `CCN(CC)CCCCOc1ccc2c(=O)c3ccc(OCCCCN(CC)CC)cc3oc2c1` [36-DEAB-X, 3,6-bis-δ-(N,N-diethylamino)butoxy-xanthone]: the IC50 in assay [1] (setting [11]) is 0.2 µM; in assay [2] (setting [10]), 0.65 µM.
As for `CCN(CC)CCOc1cccc2c(=O)c3cccc(OCCN(CC)CC)c3oc12` [45-DEAE-X, 4,5-bis-β-(N,N-diethylamino)ethoxy-xanthone], the IC50 in assay [2] (setting [10]) came out at 2.8 µM.
Take `CCN(CC)CCCCCOc1ccc2c(=O)c3ccccc3oc2c1` [3-(N,N-diethylamino)amyloxy-xanthone]: in assay [2] (setting [10]), the IC50 came to 2.5 µM.
As for `O=c1c2ccccc2oc2cc(O)ccc12` [3-hydroxyxanthone], the figures for the half-maximal inhibitory concentration (IC50) in assay [3] (setting [8]) and in assay [2] (setting [12]) were more than 1000 µM and more than 100 µM, respectively.
The like results for `O=c1c2ccc(O)cc2oc2cc(O)ccc12` [3,6-dihydroxyxanthone] were, in that order, more than 500 µM and more than 100 µM.
The like results for `O=c1c2ccccc2oc2ccc(O)cc12` [2-hydroxyxanthone] were, in that order, more than 1000 µM and 50 µM.
`CCN(CC)CCCCCOc1ccc2c(=O)c3ccc(OCCCCCN(CC)CC)cc3oc2c1` [36-DEAAmyl-X, 3,6-bis-ε-(N,N-diethylamino)-amyloxy-xanthone]: the IC50 was 0.006 µM in assay [1] (setting [4]), 0.06 µM in assay [1] (setting [5]), approximately 0.1 µM in assay [2] (setting [6]) and 0.1 µM in assay [2] (setting [7]). The “degree of potency against W2 compared with D6” value in the assay with P. falciparum W2 strain was “the same”.
As for `CCN(CC)CCOc1ccc2c(=O)c3ccc(OCCN(CC)CC)cc3oc2c1` [36-DEAE-X, 3,6-bis-β-(N,N-diethylamino)ethoxy-xanthone], the values for the IC50 in assay [1] (setting [11]) and in assay [2] (setting [10]) were approximately 1.25 µM and 2.2 µM, respectively.
On to `O=c1c2ccc(O)c(O)c2oc2c(O)c(O)ccc12` [3,4,5,6-tetrahydroxyxanthone], for which the IC50 in assay [3] (setting [8]) was determined as 2.5 µM; in assay [2] (setting [9]) it was 5 µM.
On to `CCN(CC)CCCOc1ccc2c(=O)c3ccc(OCCCN(CC)CC)cc3oc2c1` [36-DEAP-X, 3,6-bis-γ-(N,N-diethylamino)propoxy-xanthone], for which the IC50 in assay [1] (setting [11]) came out at 0.5 µM; in assay [2] (setting [10]), 1.5 µM.
In the case of `O=c1c2ccccc2oc2ccccc12` [Xanthone], the “inhibitory activity” value in assay [3] is on record as “did not exhibit any inhibitory activity”. For the same molecule, the IC50 in assay [2] (Plasmodium falciparum, D6, read-out: IC50, μM vs. Plasmodium) is more than 10 µM.
Consider `O=c1c2ccccc2oc2cc(O)cc(O)c12` [1,3-dihydroxyxanthone], for which the IC50 was more than 1000 µM in assay [3] (setting [8]) and 75 µM in assay [2] (setting [9]).

Source of the values: patent US6613797B2, “Xanthone analogs for treating infectious diseases and complexation of heme and porphyrins” (Interlab, Inc., priority 1999, dated 2003).
